Results as given in PubChem BioAssay (NCI).
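Exposure lasted 48 hours, with cells grown in 96-well plates and compounds tested at five concentrations. GI50 = concentration required for 50% inhibition of growth. TGI marks complete inhibition of growth.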

Columns and labels:
Assay in all cases: growth of human tumour cells (NCI), 48 h
NCI-H460 lung = tested on: NCI-H460 lung
SF-539 CNS = tested on: SF-539 CNS
SR leukemia = tested on: SR leukemia
OVCAR-4 ovarian = tested on: OVCAR-4 ovarian
EKVX NSCLC = tested on: EKVX NSCLC
OVCAR-8 ovarian = tested on: OVCAR-8 ovarian
RXF 393 renal = tested on: RXF 393 renal
HT29 colon = tested on: HT29 colon
TK-10 renal = tested on: TK-10 renal
SK-MEL-2 melanoma = tested on: SK-MEL-2 melanoma

Row | SMILES | GI50 (NCI-H460 lung) [µM] | TGI (NCI-H460 lung) [µM] | GI50 (SF-539 CNS) [µM] | TGI (SF-539 CNS) [µM] | GI50 (SR leukemia) [µM] | TGI (SR leukemia) [µM] | GI50 (OVCAR-4 ovarian) [µM] | TGI (OVCAR-4 ovarian) [µM] | GI50 (EKVX NSCLC) [µM] | TGI (EKVX NSCLC) [µM] | GI50 (OVCAR-8 ovarian) [µM] | TGI (OVCAR-8 ovarian) [µM] | GI50 (RXF 393 renal) [µM] | TGI (RXF 393 renal) [µM] | GI50 (HT29 colon) [µM] | TGI (TK-10 renal) [µM] | GI50 (SK-MEL-2 melanoma) [µM] | TGI (HT29 colon) [µM] | GI50 (TK-10 renal) [µM] | TGI (SK-MEL-2 melanoma) [µM]
1 | COc1cc([C@@H]2c3cc4c(cc3[C@H](OC(C)=O)[C@H]3COC(=O)[C@@H]23)OCO4)cc(OC)c1OC | 0.322 | 3.3 | 0.216 | 0.526 | 0.153 | > 100 | 2.11 | > 100 | 0.489 | > 100 | 0.469 | > 100 | 0.235 | 0.591 | 0.343 | > 100 | 0.342 | – | – | –
2 | c1ccc(-c2nc3n(c2-c2ccc4c(c2)OCO4)CCC3)nc1 | 4.51 | 13.3 | 6.38 | 21.6 | 9.49 | > 25 | 2.41 | 15.8 | 5.2 | > 25 | 6.34 | > 25 | 2.45 | > 17.5 | 7.79 | > 23.6 | 11.7 | > 25 | 1.41 | > 25
3 | CN(Cc1ccc(F)cc1)c1ccc(CO)c(Cl)c1 | 1.41 | 13.9 | 40.7 | > 100 | 20.3 | 73.8 | 2.22 | 19.7 | 26.9 | > 100 | 20.7 | > 100 | 9.12 | > 59 | 8.38 | 0.825 | 8.32 | 67.1 | 0.203 | 33.8
4 | C=C1C(=O)C23[C@H](O)C1CC[C@H]2[C@]12COC3(O)[C@@H](O)[C@@H]1C(C)(C)CC[C@@H]2O | – | 30.7 | – | 22.6 | – | 34.9 | – | 33.5 | – | 34.6 | – | 27.2 | – | 10.9 | – | 31 | – | 36.6 | – | 11
5 | C=C1C(=O)O[C@H]2[C@H]1CC/C(COC(=O)N[C@H]1C[C@H](O[C@H]3C[C@](O)(C(=O)CO)Cc4c(O)c5c(c(O)c43)C(=O)c3c(OC)cccc3C5=O)O[C@@H](C)[C@H]1O)=C\CC[C@@]1(C)O[C@@H]21 | 9.02 | > 50 | 2.37 | 8.43 | 1.02 | 7.12 | 3.47 | 12.3 | 23.3 | > 50 | 6.99 | 18 | 1.22 | 3.85 | 4.48 | > 50 | 7.97 | 22 | 9 | 17
6 | COc1cc(OCc2cccc(-c3ccccc3)c2C)cc(OC)c1CN1CCCCC1C(=O)NCCOCCOCCN (configuration not stated) | 1.83 | 3.73 | 1.74 | 3.25 | 1.74 | 4.24 | 2.33 | 6.48 | 3.71 | 15.7 | 3.26 | 12.1 | 3.26 | 11.4 | 2.38 | 7.42 | 1.96 | 6.65 | 2.48 | 4.03
7 | CCN1[C@@H](C(=O)NC23CCC(C(=O)O)(CC2)CC3)[C@H](c2cccc(Cl)c2F)[C@]2(C(=O)Nc3cc(Cl)ccc32)C12CCCCC2 | 0.0909 | 1.45 | 2.78 | 10.6 | 0.0146 | 4.72 | 3.37 | 15.5 | 2.53 | 13.7 | 3.84 | 18.7 | 1.99 | 5.69 | 3.06 | 16.2 | 2.02 | 14.8 | 3.05 | 5.18
8 | CCCCCCC(O)CC[C@H]1CCC[C@@H](C)N1 (some centres not stated) | – | > 100 | – | > 100 | – | > 100 | – | < 10 | – | > 100 | – | < 10 | – | > 100 | – | > 100 | – | > 31.6 | – | < 10
9 | N=c1ccc2nc3ccc(N)cc3sc-2c1 | 5.23 | > 100 | 3.21 | 8.62 | 4.65 | > 100 | 3.78 | 13.5 | 6.63 | 81.1 | 3.69 | 14 | 12.2 | 28.2 | 11.1 | 35.5 | 6.08 | 40.8 | 11.7 | 22.5
10 | O=c1c2c(-c3ccccc3)c3ccccc3nc2cnn1-c1ccccc1 | – | > 100 | – | > 100 | – | > 100 | – | > 100 | – | > 100 | – | > 100 | – | > 100 | – | > 100 | – | > 100 | – | > 100
11 | CCOc1ccc(N=C(NC(=O)c2ccccc2)SC)cc1 | – | > 100 | – | > 100 | – | > 100 | – | > 100 | – | > 100 | – | > 100 | – | > 100 | – | > 100 | – | > 100 | – | > 100
